From US20090233999A1, “COMPOSITIONS AND THERAPEUTIC METHODS INVOLVING ISOFLAVONES AND ANALOGUES THEREOF” (NOVOGEN RESEARCH PTY LTD, priority 1999, published 2009)

Assays:
[1] = test system: TNFα; assay: LPS-induced TNFα synthesis in human monocytes; assay type: cell-based; settings: 100 μM
Description: Test compounds (in DMSO) at 100, 10, and 1 μmol/ were incubated with monocytes at 37° C. for 30 min after which LPS was added (200 ng/ml) and cells were incubated in triplicate for 18 h at 37° C. in 5% CO2. […], supernatants were removed and TNFα measured by ELISA previously described.

[2] = test system: eNOS; assay: eNOS mRNA expression in HAECs (real-time PCR); assay type: cell-based, human; settings: 10 μM; for increase of eNOS mRNA over vehicle control (average): two more assays
Description: HAECs were grown as described above.

[3] = test system: E-selectin; assay: TNFα-induced E-selectin expression on HAECs (ELISA); assay type: cell-based, human; settings: 10 μM
Description: Inhibition of TNFα-stimulated endothelial cell activation by compounds was assessed by measuring surface expression of cell adhesion molecules with an ELISA. Human arterial endothelial cells (HAECs) in growth medium (Cell Applications Inc.) were seeded into 96-well plates at a density of 10,000 cells per well. Plates were incubated overnight at 37° C. in a humidified incubator to allow for cells to become confluent. On the morning of the experiment, TNFα (10 μl, 2 ng/ml) was added to each well, which contained 100 μl of medium. Compounds were diluted in DMSO-containing medium (2.5% DMSO) to give a compound concentration of 100 and 300 μM. Compounds were added to wells so that final concentrations were 10 and 30 μM. DMSO-containing medium alone was added to zero concentration control wells. All samples were measured in quadruplicate (4 wells per treatment).
After incubation with compound for 4 hours, medium was removed and cells were probed with either non-specific IgG or specific mouse antibodies against VCAM, ICAM or E-selectin (BD Biosciences—0.1 μg in 100 μL buffered saline with 10% heat-inactivated human serum). Adhesion molecule expression was detected by addition of sheep anti-mouse antibody/horseradish peroxidase conjugate. […] Optical density was measured at 405 nm with an ELISA reader (Titertek Multiscan, Flow Laboratories).

[4] = test system: Dark Agouti rats (air pouch); assay: Rat air pouch assay (serum-treated zymozan); assay type: in vivo; settings: for Leucocytes in lavage fluid (×10^−7) / Polymorphs in tissue sections (per 100 squares): 4 h; for activity in the rat air pouch assay: in vivo
Description: Air pouches were raised on the dorsum of female Dark Agouti rats, approximately seven weeks of age. To promote the formation of a cellular membrane lining the inside of each pouch, the pouches were maintained by re-inflating on days 2 and 5 after the initial injection of air. On re-inflation, the pouch was first deflated to ensure the needle was positioned correctly, before being re-inflated with 2 mL of sterile air. Using this protocol, the pouches remained inflated until use on day 7, when they were injected with 0.5 ml of either test compound or vehicle control. After 15 min, air pouches were injected with serum-treated zymozan (500 μg). Lavage of the air pouch was performed at 4 h and leucocytes counted, after which the rats were killed, the air pouch excised and processed in formalin for histology. The sections were blinded to the person counting. Using a graticule with 100 squares and the 40× objective, the number of polymorphs were counted in the pouch lining at 10 different and non-adjacent sites. Group sizes were 5-6 rats. Data were analysed for statistical significance within each experiment and using an unpaired t test.

[5] = test system: A10; assay: Proliferation of rat aorta media cell line A10; assay type: cell-based; settings: 72 h, three days, read-out: VSMC proliferation - IC50 (μM), A10
Description: Human umbilical vein smooth muscle cells (HUVSMC), tissue explants from a neonate (HRI— passage 2), were seeded into 96 well plates at 1×10^3 cells per well, and allowed to attach for 24 hours. They were then washed twice and incubated in medium without FBS for 24-48 hours to serum-starve them. Test compounds were prepared in medium without FBS and added to the plates and incubated for one hour. Medium with FBS was added to give a final concentration of 10% and the plates incubated for 5 days until the controls were just confluent. Final analogue concentration was therefore either a series from 150 μM to 1.2 μM, or single concentrations of 10 μM. The difference in absorbance between treated cells and untreated cells was calculated using the formula, test/control*100, to obtain the percentage change caused by the test compound. As well, an IC50 for each compound was calculated.
The effect of test compounds a rat aortic smooth muscle cell line (A7r5) and another cell line from the media of rat aorta (A10) was examined. The methodology was the same as for HUVSMC, except that the cells were treated with compound for three days.

[6] = molecular target: T1, PPARγ (Homo sapiens, UniProt P37231); assay: PPARγ agonist activity, GAL4-PPARγ beta-lactamase reporter HEK293 cells; assay type: cell-based; settings: FIG. 11: 5 μM
T1 construct: host or cells: HEK293 (human embryonic kidney), stably transfected
T1 sequence (P37231 238-503 limits assumed): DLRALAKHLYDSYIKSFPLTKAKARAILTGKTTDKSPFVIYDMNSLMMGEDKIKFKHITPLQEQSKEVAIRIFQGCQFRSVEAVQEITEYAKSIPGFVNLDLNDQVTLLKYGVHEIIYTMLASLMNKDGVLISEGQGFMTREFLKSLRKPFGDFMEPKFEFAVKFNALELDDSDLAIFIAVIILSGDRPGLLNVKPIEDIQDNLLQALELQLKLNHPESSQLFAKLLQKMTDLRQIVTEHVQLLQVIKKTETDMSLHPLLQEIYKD
Description: Human HEK293 cells, stably transfected with the PPARγ ligand binding domain fused with the DNA binding domain of the GAL4 protein (GAL4-PPARγ fusion protein), produce beta-lactamase when incubated with PPARγ ligands. Transfected human kidney embryonic cells (Invitrogen Inc., Carlsbad, Calif.) were seeded onto matrigel in 96-well plates and allowed to attach overnight. The following day, vehicle alone (DMSO) or test compound at 1, 5 and 10 μM was added at varying concentrations to cells and incubated for 16-18 hours. Cells were then loaded with a FRET-based fluorescent substrate to assess beta-lactamase activity. Cells were protected from light, and incubated at room temperature for 2 h. Plates were read on a fluorescence plate reader with an excitation wavelength of 409 nm and emission wavelengths of 460 nm and 530 nm. Results were expressed as a ratio of these two wavelengths after the background (cell-free control wells) had been subtracted. PPARγ activity was thus determined by measuring beta-lactamase activity as assessed by a fluorescent product to substrate ratio.

[7] = THP-1 cell viability; assay type: cell-based; settings: human, THP-1 cells, read-out: reduction of viability of the THP-1 cells
Description: MTT is bioreduced by viable cells into a coloured formazan product that is soluble in DMSO. Thus the quantity of formazan product is directly proportional to the number of living cells in culture, and can be measured using a spectrophotometer at 570 nm. These compounds reduce MTT in the absence of cells, resulting in a change in substrate colour from yellow to purple. This activity is dependent on the reducing power of each compound and was measured at 5 concentrations (data not shown). The ability of compounds to reduce MTT was not related to their ability to inhibit NFkB-activity.

| Compound | PPARγ activation (increase in beta-lactamase activity) [6] | synthesis of TNFα [1] | increase of eNOS mRNA over vehicle control (average) [2] | TNFα-induced E-selectin expression [3] | Leucocytes in lavage fluid (×10^−7) ([4]; 1 mM added to air pouch) | Polymorphs in tissue sections (per 100 squares) ([4]; 1 mM added to air pouch) | activity in the rat air pouch assay [4] | IC50 [5] | cytotoxicity at 30 μM [7] | further results |
| --- | --- | --- | --- | --- | --- | --- | --- | --- | --- | --- |
| COc1ccc(C2=Cc3ccc(O)cc3OC2)cc1OC [Cpd. 18, 7-Hydroxy-3′,4′-dimethoxyisoflav-3-ene] |  | inhibited | 62% | inhibited | 0.51 ± 0.33 ×10^−7 | 6.3 ± 1.3 per 100 squares | active |  |  | Leucocytes in lavage fluid (×10^−7) ([4]; 100 μM added to air pouch): 0.88 ± 0.30 ×10^−7; Polymorphs in tissue sections (per 100 squares) ([4]; 100 μM added to air pouch): 23.2 ± 10.4 per 100 squares |
| Cc1c(O)ccc2c1OCC(c1cccc(O)c1)=C2 [Cpd. 14, 3′,7-Dihydroxy-8-methylisoflav-3-ene] |  | inhibited | 86% |  |  |  |  | 10 µM |  | expression of eNOS ([2]; 24 hrs, HAECs): significantly increased |
| Oc1ccc2c(c1)OCC(c1ccc(Br)cc1)=C2 [Cpd. 21, 4′-Bromo-7-hydroxyisoflav-3-ene] |  |  |  |  |  |  |  |  | ~10% |  |

Second part, led by results:

| PPARγ activation (increase in beta-lactamase activity) [6] | Compound | synthesis of TNFα [1] | increase of eNOS mRNA over vehicle control (average) [2] | TNFα-induced E-selectin expression [3] | Leucocytes in lavage fluid (×10^−7) ([4]; 1 mM added to air pouch) | Polymorphs in tissue sections (per 100 squares) ([4]; 1 mM added to air pouch) | activity in the rat air pouch assay [4] | IC50 [5] | cytotoxicity at 30 μM [7] | further results |
| --- | --- | --- | --- | --- | --- | --- | --- | --- | --- | --- |
| some PPARγ agonist activity | Oc1ccc(C2=Cc3ccc(O)c(Br)c3OC2)cc1 [Cpd. 20, 4′,7-Dihydroxy-8-bromoisoflav-3-ene] |  |  | inhibited |  |  |  |  |  |  |
| some PPARγ agonist activity | COc1ccc(C2=Cc3ccc(O)c(C)c3OC2)cc1OC [Cpd. 19, 7-Hydroxy-3′,4′-dimethoxy-8-methylisoflav-3-ene] | inhibited |  |  |  |  |  |  |  |  |
| some PPARγ agonist activity | COc1cccc(C2=Cc3ccc(O)cc3OC2)c1 [Cpd. 16, 7-Hydroxy-3′-methoxyisoflav-3-ene] |  |  |  | 0.53 ± 0.35 ×10^−7 | 14.1 ± 15.8 per 100 squares | active | 31 µM | ~10% |  |
